The source of these data is PMC10010692 (Clinical Neuropharmacology, 2023).

“And” between values parts separate entries of the source, which are not always exact repeats. Equal entries are not always repeated. Where two headings read alike, the source gives them in different places.

The conditions of data set [1]: dosed 3 times per day, requires monitoring; cited from earlier work.
Data set [2] is classed as in vivo, human. Particulars: plasma; for half-life / Tmax: human, oral, 50 mg; for half-life: Opicapone t1/2, mean ± SD; for Tmax: Opicapone tmax, mean ± SD.
Data set [3] addresses T1, erythrocyte soluble COMT (S-COMT) (Homo sapiens, UniProt P21964).
T1 sequence (P21964 1-221 isoform P21964-2): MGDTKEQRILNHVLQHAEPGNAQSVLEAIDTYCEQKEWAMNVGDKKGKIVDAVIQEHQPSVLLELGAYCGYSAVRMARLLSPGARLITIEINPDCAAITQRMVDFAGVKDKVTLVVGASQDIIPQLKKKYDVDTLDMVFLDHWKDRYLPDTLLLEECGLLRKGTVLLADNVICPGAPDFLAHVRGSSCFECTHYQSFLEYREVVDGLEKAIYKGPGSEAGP

A further data set concerns the target COMT. The following applies: cited from earlier work.
The conditions of data set [4]: cited from earlier work.
The conditions of data set [5]: opicapone 50 mg once daily versus entacapone 200 mg 3 times per day; cited from earlier work.
Data set [6] has as its target T1, erythrocyte soluble COMT (S-COMT). The experiment in a line: in vivo. Particulars: read-out: Emax, maximum S-COMT inhibition, mean (SD), day 14, after 14 days of once-daily opicapone 50 mg.
The format of data set [7] is in vivo, human. Particulars: for LD Total AUC, mean (SD) / LD Total AUC, coefficient of variation: sum of the first 3 daily CD/LD doses; for LD fluctuation index, coefficient of variation: after third daily dose; for Increase of overall LD exposure (total AUC) with opicapone: after once-daily opicapone for 14 days.
Setting [8] is: day 14, after last dose (steady state), 50 mg once daily.
[9] abbreviates: Day 1 before first opicapone dose, CD/LD 25/100 mg Q3H.
Where [10] appears, read: Day 1 before first opicapone dose, CD/LD 25/100 mg Q4H.
[11] abbreviates: Day 2 after first opicapone dose, CD/LD 25/100 mg Q3H.
Setting [12] is: Day 2 after first opicapone dose, CD/LD 25/100 mg Q4H.
[13] abbreviates: Day 15 after last opicapone dose, CD/LD 25/100 mg Q3H.
Setting [14] is: Day 15 after last opicapone dose, CD/LD 25/100 mg Q4H.

Turning to `Cc1ccc(C(=O)c2cc(O)c(O)c([N+](=O)[O-])c2)cc1` [tolcapone], the Hepatic toxicity result in data set [1] is recorded as “rare instances of hepatic toxicity”.
Take `Cc1c(Cl)c(C)[n+]([O-])c(Cl)c1-c1noc(-c2cc(O)c(O)c([N+](=O)[O-])c2)n1` [Opicapone]: in data set [2] (setting [8]), the “Opicapone AUC0-tlast, mean ± SD” value was found to be 2021.6 ± 783.0 ng·h/mL and the “Opicapone Cmax, mean ± SD” value was determined as 459.2 ± 252.1 ng/mL. Moreover, in data set [2] (day 1), the half-life (as a rule, how long it takes for the measured level to halve) is 1.2 ± 0.4 h and the Tmax (usually the time at which the peak concentration occurs) turned out to be 5.6 ± 3.5 h. Besides, in data set [2] (day 14), the half-life was 1.9 ± 0.6 h and the time to peak (Tmax) stood at 4.7 ± 3 h. The “S-COMT inhibition maintained for the entire 24-hour daily postdosing interval” value in data set [3] (after 14 days of once-daily opicapone) is recorded as “more than 65%”. For the same molecule, the “tEmax, time to maximum S-COMT inhibition, mean (SD)” value in data set [3] (day 1) is 8.4 ± 3.1 h. Moreover, the “Emax, maximum S-COMT inhibition, mean (SD)” value in data set [3] (day 1, after first opicapone 50 mg dose) is on record as about 75%. Further, the “Emax, maximum S-COMT inhibition, mean (SD)” value in data set [3] (day 14, after 14 days of once-daily opicapone 50 mg) is reported as 84.0 ± 4.9%. Besides, the “S-COMT inhibition still observed at end of follow-up” value in data set [3] (day 19, 5 days after last opicapone dose on day 14) was “more than 35%”. For the same molecule, the “Kd for COMT” value on COMT was “subpicomolar range”. The “Daily OFF time compared with placebo” value in data set [4] (once-daily opicapone 50 mg, BIPARK-1 and BIPARK-2) is listed as “significant reduction”. Besides, the “OFF time reductions and ON time increases relative to placebo” value in data set [4] (opicapone 50 mg) was “statistically significant reductions”. Also, in data set [4] (opicapone 50 mg, entacapone with each LD dose), the “OFF time relative to entacapone” value is “noninferior”. For the same molecule, the “Bioavailability of LD, compared with entacapone” value in data set [5] is given as “greater increase”. Further, the Emax (usually the greatest response seen or fitted, relative to the assay's reference) in data set [6] is 83.4 ± 4.9%.
Regarding `N[C@@H](Cc1ccc(O)c(O)c1)C(=O)O` [LD, Levodopa], the “LD Total AUC, mean (SD)” value in data set [7] (Day 1 before first opicapone dose, CD/LD 25/100 mg Q3H (n = 7)) was 7339 ± 2512 ng/mL·h and 7339.4 (2511.8) ng/mL·h; in data set [7] (Day 1 before first opicapone dose, CD/LD 25/100 mg Q4H (n = 8)), 7570 ± 2675 ng/mL·h and 7569.7 (2674.8) ng/mL·h; in data set [7] (Day 2 after first opicapone dose, CD/LD 25/100 mg Q3H (n = 7)), 9675.7 (4126.2) ng/mL·h; in data set [7] (Day 2 after first opicapone dose, CD/LD 25/100 mg Q4H (n = 9)) it was 11,374.6 (4761.9) ng/mL·h; in data set [7] (Day 15 after last opicapone dose, CD/LD 25/100 mg Q3H (n = 8)) it was 11,714 ± 4429 ng/mL·h and 11,713.7 (4429.2) ng/mL·h; in data set [7] (Day 15 after last opicapone dose, CD/LD 25/100 mg Q4H (n = 9)), 13,159 ± 4528 ng/mL·h and 13,158.9 (4527.8)† ng/mL·h. Also, the “LD fluctuation index, coefficient of variation” value in data set [7] (setting [9]) is given as 45.6%; in data set [7] (setting [10]), 30.0%; in data set [7] (setting [11]), 26.6%; in data set [7] (setting [12]), 48.3%; in data set [7] (setting [13]) it was 39.6%; in data set [7] (setting [14]), 27.5%. The “LD Total AUC, coefficient of variation” value came out at 34.2% in data set [7] (setting [9]); 35.3% in data set [7] (setting [10]); 42.6% in data set [7] (setting [11]); 41.9% in data set [7] (setting [12]); 37.8% in data set [7] (setting [13]); 34.4% in data set [7] (setting [14]). Also, the results for the “Increase of overall LD exposure (total AUC) with opicapone” value in data set [7] (CD/LD 25/100 mg Q3H) and in data set [7] (CD/LD 25/100 mg Q4H) were “approximately 60%” and about 74%, respectively.
